Assay results: the supplement of paper PMC10307832

Experiments:
Test in all cases: relative viability (nuclei count vs DMSO), 5 days (fraction); higher = more cells survive
[1] = compound: CC1=NN=C(O1)C2=NN=C(C=C2)N3CCC(CC3)OC4=C(C=CC(=C4)F)Cl + COc1cccc2cc(-c3nc([C@H]4CC[C@H](C(=O)O)CC4)n4ncnc(N)c34)[nH]c12 [OSI-027] (partner 0.5 µM)
In short: (§1)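 Medians of duplicate plates are given as relative viability. That measure is the nuclei count in treated wells divided by the count in vehicle wells. Counts were taken on 4× images of lung cancer cell lines in 1536-well plates, 5 days after pin-tool dosing the day after seeding with one drug alone or a fixed anchor-drug dose plus five library-drug doses (not always all listed) in √10 steps.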

[2] = compound: CC1=NN=C(O1)C2=NN=C(C=C2)N3CCC(CC3)OC4=C(C=CC(=C4)F)Cl + O=C(CCCCCCC(=O)Nc1ccccc1)NO [Vorinostat] (partner 1 µM)
In short: as §1

[3] = compound: CC1=NN=C(O1)C2=NN=C(C=C2)N3CCC(CC3)OC4=C(C=CC(=C4)F)Cl + C[C@]1(O)C[C@@H](c2nc(-c3ccc4ccc(-c5ccccc5)nc4c3)c3c(N)nccn32)C1 [Linsitinib] (partner 1 µM)
In short: as §1

[4] = compound: CC1=NN=C(O1)C2=NN=C(C=C2)N3CCC(CC3)OC4=C(C=CC(=C4)F)Cl + Cc1nc(NC(=O)N2CCC[C@H]2C(N)=O)sc1-c1ccnc(C(C)(C)C(F)(F)F)c1 [Alpelisib] (partner 2 µM)
In short: as §1

Cell Line | relative viability ([1]; first compound 0.253 µM) | relative viability ([1]; first compound 0.8 µM) | relative viability ([1]; first compound 2.53 µM) | relative viability ([1]; first compound 8 µM) | relative viability ([2]; first compound 0.253 µM) | relative viability ([2]; first compound 0.8 µM) | relative viability ([2]; first compound 2.53 µM) | relative viability ([2]; first compound 8 µM) | relative viability ([3]; first compound 0.253 µM) | relative viability ([3]; first compound 0.8 µM) | relative viability ([3]; first compound 2.53 µM) | relative viability ([3]; first compound 8 µM) | relative viability ([4]; first compound 0.253 µM) | relative viability ([4]; first compound 0.8 µM) | relative viability ([4]; first compound 2.53 µM) | relative viability ([4]; first compound 8 µM)
ChaGo-K-1 | 0.506 | 0.422 | 0.597 | 0.398 | 0.546 | 0.444 | 0.55 | 0.448 |  |  |  |  |  |  |  | 
PC-3 [JPC-3] | 0.691 | 0.619 | 0.655 | 0.681 | 0.703 | 0.526 | 0.797 | 0.478 | 0.789 | 0.869 | 0.869 | 0.844 | 0.915 | 0.866 | 0.914 | 0.901
COR-L23 | 0.654 | 0.558 | 0.586 | 0.389 | 0.332 | 0.378 | 0.375 | 0.316 | 0.669 | 0.726 | 0.678 | 0.579 | 0.591 | 0.657 | 0.574 | 0.552
COR-L 105 | 0.702 | 0.687 | 0.908 | 0.769 | 0.797 | 0.919 | 0.794 | 0.8 | 0.764 | 0.935 | 1.1 | 1.21 | 0.925 | 1.03 | 1.12 | 1.29
LK-2 | 0.265 | 0.23 | 0.311 | 0.234 | 0.352 | 0.256 | 0.291 | 0.295 | 0.603 | 0.592 | 0.627 | 0.49 | 1.03 | 1.01 | 1.17 | 1.23
201T | 0.383 | 0.536 | 0.583 | 0.504 | 0.474 | 0.501 | 0.478 | 0.479 | 0.569 | 0.596 | 0.634 | 0.565 | 0.594 | 0.614 | 0.578 | 0.563
A549 |  |  |  |  |  |  |  |  | 0.543 | 0.565 | 0.427 | 0.351 | 0.573 | 0.666 | 0.581 | 0.463
NCI-H1299 |  |  |  |  |  |  |  |  | 0.896 | 0.802 | 0.807 | 0.856 | 0.939 | 0.877 | 0.971 | 0.868
SW 900 |  |  | 0.637 | 0.41 |  | 0.287 | 0.418 | 0.28 |  |  |  |  |  |  |  | 
IA-LM |  |  |  |  | 0.402 | 0.296 | 0.435 | 0.364 | 0.0892 | 0.0763 | 0.1 | 0.0794 | 0.156 | 0.157 | 0.137 | 0.157
NCI-H1792 | 0.547 | 0.587 | 0.686 | 0.731 |  |  |  |  | 0.324 | 0.409 | 0.36 | 0.401 | 0.397 | 0.432 | 0.264 | 0.448
NCI-H1563 | 0.772 | 0.854 | 0.77 | 0.834 |  |  |  |  | 1.18 | 1.1 | 1.35 | 1.21 | 1 | 0.952 | 0.999 | 1.09
NCI-H1648 | 0.256 | 0.253 | 0.279 | 0.271 | 0.376 | 0.417 | 0.5 | 0.513 |  |  |  |  |  |  |  | 
